Measured values as given in the kinase profiling compilation of Christmann-Franck et al. (2016).

Legend:
Test in all cases: KINOMEscan competition binding
[1] = test system: ABL1 (human), P00519 [E255K]; conditions: compound 1.0 µM
CDC42BPG (human) = CDC42BPG (human) (UniProt Q6DT37); conditions: for kinase still bound, per cent of control: compound 1.0 µM
CDKL2 (human) = CDKL2 (human) (UniProt Q92772); conditions: compound 1.0 µM
CIT (human) = CIT (human) (UniProt O14578); conditions: for kinase still bound, per cent of control: compound 1.0 µM
CSNK1D (human) = CSNK1D (human) (UniProt P48730); conditions: compound 1.0 µM
CaMK1 (human) = CaMK1 (human) (UniProt Q14012); conditions: compound 1.0 µM
Sequence of CaMK1 (human) (Q14012 whole entry, looked up): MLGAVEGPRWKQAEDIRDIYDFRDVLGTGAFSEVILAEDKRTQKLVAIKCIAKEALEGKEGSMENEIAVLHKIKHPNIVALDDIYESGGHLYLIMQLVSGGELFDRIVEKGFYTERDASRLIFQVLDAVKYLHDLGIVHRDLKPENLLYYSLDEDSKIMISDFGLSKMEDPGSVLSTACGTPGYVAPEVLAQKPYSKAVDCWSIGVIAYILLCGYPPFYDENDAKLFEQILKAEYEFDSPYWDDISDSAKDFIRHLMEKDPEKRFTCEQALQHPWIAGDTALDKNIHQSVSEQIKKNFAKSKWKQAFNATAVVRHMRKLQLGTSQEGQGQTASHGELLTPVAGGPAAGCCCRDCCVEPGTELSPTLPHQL

DDR2 (human) = DDR2 (human) (UniProt Q16832); conditions: compound 1.0 µM
[2] = test system: EGFR (human), P00533 [G719S]; conditions: compound 1.0 µM
EIF2AK1 (human) = EIF2AK1 (human) (UniProt Q9BQI3); conditions: compound 1.0 µM
EIF2AK2 (human) = EIF2AK2 (human) (UniProt P19525); conditions: compound 1.0 µM
ERBB4 (human) = ERBB4 (human) (UniProt Q15303); conditions: compound 1.0 µM
FGR (human) = FGR (human) (UniProt P09769); conditions: compound 1.0 µM
FLT3 (human) = FLT3 (human) (UniProt P36888); conditions: compound 1.0 µM
[3] = test system: FLT3 (human), P36888 [ITD]; conditions: compound 1.0 µM
GRK7 (human) = GRK7 (human) (UniProt Q8WTQ7); conditions: compound 1.0 µM
IGF1R (human) = IGF1R (human) (UniProt P08069); conditions: compound 1.0 µM
[4] = biological target: JAK1 JH1 catalytic (human) (UniProt P23458); conditions: compound 1.0 µM
KIT (human) = KIT (human) (UniProt P10721); conditions: compound 1.0 µM
[5] = test system: KIT (human), P10721 [V559D/T670I]; conditions: for kinase still bound, per cent of control: compound 1.0 µM
Sequence of KIT (human), P10721 [V559D/T670I] (P10721 whole entry V559D/T670I, looked up): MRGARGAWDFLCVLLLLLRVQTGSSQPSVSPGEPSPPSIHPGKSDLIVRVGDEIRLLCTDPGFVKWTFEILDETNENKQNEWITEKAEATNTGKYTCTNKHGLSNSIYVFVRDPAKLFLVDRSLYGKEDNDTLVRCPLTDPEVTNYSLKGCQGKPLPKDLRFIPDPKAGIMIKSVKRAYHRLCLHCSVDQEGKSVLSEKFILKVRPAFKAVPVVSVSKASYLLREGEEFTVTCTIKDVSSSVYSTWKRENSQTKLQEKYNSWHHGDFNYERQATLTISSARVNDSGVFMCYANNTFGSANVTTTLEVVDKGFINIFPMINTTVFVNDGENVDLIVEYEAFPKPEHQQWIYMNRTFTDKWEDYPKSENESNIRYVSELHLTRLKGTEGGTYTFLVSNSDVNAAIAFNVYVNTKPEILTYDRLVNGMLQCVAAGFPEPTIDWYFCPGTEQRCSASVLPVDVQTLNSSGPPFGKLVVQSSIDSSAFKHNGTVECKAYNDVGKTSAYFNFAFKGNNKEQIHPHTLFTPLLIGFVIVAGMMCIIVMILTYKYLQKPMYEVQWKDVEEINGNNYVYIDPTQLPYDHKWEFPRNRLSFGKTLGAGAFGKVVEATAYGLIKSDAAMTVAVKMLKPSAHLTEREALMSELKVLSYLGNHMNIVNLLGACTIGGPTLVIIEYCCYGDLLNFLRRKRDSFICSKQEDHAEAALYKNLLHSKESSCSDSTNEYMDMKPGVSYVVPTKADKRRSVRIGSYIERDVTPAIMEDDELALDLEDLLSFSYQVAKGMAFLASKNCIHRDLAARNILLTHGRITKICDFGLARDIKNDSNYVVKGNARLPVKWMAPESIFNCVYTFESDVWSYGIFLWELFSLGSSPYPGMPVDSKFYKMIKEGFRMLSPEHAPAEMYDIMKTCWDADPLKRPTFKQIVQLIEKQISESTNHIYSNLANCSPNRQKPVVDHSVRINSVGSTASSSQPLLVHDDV

[6] = test system: KIT (human), P10721 [V559D/V654A]; conditions: compound 1.0 µM
Sequence of KIT (human), P10721 [V559D/V654A] (P10721 whole entry V559D/V654A, looked up): as the sequence (P10721 whole entry V559D/T670I, looked up) above, with V654A, I670T counted along it

MAP3K11 (human) = MAP3K11 (human) (UniProt Q16584); conditions: compound 1.0 µM
MAPK6 (human) = MAPK6 (human) (UniProt Q16659); conditions: compound 1.0 µM
MAPK7 (human) = MAPK7 (human) (UniProt Q13164); conditions: compound 1.0 µM
Sequence of MAPK7 (human) (Q13164 whole entry, looked up): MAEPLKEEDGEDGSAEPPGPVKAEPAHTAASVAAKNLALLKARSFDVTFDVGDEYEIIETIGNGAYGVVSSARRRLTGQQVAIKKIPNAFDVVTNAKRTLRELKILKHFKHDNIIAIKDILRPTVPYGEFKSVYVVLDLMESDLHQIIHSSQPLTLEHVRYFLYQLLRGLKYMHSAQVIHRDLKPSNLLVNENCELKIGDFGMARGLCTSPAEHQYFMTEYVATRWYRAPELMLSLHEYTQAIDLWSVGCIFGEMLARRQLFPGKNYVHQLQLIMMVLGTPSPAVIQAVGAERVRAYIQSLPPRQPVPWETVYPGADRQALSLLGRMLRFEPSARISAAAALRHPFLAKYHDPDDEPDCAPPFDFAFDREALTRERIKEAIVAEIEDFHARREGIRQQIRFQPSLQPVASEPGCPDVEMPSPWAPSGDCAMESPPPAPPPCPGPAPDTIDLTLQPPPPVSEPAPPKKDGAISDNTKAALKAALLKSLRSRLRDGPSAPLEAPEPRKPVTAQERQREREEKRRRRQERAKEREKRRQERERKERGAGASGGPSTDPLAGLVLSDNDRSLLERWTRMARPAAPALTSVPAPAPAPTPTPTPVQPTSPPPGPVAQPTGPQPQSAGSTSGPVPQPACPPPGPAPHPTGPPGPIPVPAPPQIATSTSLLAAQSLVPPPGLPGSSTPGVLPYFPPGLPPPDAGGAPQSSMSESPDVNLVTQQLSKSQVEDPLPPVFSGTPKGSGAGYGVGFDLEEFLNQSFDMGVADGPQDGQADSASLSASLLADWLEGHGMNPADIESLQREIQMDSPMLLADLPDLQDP

MAPKAPK5 (human) = MAPKAPK5 (human) (UniProt Q8IW41); conditions: compound 1.0 µM
MAST1 (human) = MAST1 (human) (UniProt Q9Y2H9); conditions: compound 1.0 µM
MATK (human) = MATK (human) (UniProt P42679); conditions: compound 1.0 µM
[7] = test system: MET (human), P08581 [Y1235D]; conditions: compound 1.0 µM
NTRK1 (human) = NTRK1 (human) (UniProt P04629); conditions: compound 1.0 µM
PDPK1 (human) = PDPK1 (human) (UniProt O15530); conditions: compound 1.0 µM
PHKG1 (human) = PHKG1 (human) (UniProt Q16816); conditions: compound 1.0 µM
PIK3C2G (human) = PIK3C2G (human) (UniProt O75747); conditions: compound 1.0 µM
[8] = test system: PIK3CA (human), P42336 [H1047Y]; conditions: compound 1.0 µM
PKN2 (human) = PKN2 (human) (UniProt Q16513); conditions: compound 1.0 µM
PRKD3 (human) = PRKD3 (human) (UniProt O94806); conditions: for kinase still bound, per cent of control: compound 1.0 µM
Sequence of PRKD3 (human) (O94806 whole entry, looked up): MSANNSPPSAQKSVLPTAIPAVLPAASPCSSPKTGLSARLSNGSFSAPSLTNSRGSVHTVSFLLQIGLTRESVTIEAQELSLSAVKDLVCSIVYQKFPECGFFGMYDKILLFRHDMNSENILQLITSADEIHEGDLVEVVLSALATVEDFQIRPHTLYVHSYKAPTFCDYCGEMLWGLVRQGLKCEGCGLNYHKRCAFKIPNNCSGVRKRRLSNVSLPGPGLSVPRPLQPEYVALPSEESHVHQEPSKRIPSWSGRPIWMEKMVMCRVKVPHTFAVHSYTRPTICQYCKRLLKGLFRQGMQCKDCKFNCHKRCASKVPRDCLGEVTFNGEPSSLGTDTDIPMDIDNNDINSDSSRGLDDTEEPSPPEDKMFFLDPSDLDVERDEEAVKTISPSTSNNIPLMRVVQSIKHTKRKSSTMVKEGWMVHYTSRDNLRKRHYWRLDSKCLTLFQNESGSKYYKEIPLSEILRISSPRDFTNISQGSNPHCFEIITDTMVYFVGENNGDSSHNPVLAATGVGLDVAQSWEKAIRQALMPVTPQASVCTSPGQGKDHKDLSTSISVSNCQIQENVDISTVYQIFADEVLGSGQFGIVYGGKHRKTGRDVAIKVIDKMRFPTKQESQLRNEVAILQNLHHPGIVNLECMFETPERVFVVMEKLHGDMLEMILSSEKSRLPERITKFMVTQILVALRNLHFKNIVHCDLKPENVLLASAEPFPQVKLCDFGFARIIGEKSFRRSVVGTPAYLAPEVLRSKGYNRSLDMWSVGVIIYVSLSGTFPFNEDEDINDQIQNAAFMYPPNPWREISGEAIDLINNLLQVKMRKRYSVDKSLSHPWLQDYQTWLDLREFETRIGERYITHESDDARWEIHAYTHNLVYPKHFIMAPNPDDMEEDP

SIK3 (human) = SIK3 (human) (UniProt Q9Y2K2); conditions: compound 1.0 µM
SRMS (human) = SRMS (human) (UniProt Q9H3Y6); conditions: compound 1.0 µM
STK17A (human) = STK17A (human) (UniProt Q9UEE5); conditions: compound 1.0 µM
STK25 (human) = STK25 (human) (UniProt O00506); conditions: compound 1.0 µM
Sequence of STK25 (human) (O00506 whole entry, looked up): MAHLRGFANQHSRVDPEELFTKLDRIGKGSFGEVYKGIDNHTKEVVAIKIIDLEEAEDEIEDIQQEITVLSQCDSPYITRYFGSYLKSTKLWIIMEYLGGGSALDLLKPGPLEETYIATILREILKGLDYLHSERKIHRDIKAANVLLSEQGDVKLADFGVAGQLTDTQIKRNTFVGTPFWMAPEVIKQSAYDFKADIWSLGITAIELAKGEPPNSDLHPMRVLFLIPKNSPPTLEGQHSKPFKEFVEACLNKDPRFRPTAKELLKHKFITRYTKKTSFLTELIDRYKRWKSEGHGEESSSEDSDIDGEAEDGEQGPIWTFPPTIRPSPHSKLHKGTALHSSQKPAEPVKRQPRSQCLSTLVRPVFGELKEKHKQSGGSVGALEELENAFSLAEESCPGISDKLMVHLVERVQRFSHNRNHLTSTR

STK39 (human) = STK39 (human) (UniProt Q9UEW8); conditions: compound 1.0 µM
TRPM6 (human) = TRPM6 (human) (UniProt Q9BX84); conditions: compound 1.0 µM
WEE1 (human) = WEE1 (human) (UniProt P30291); conditions: compound 1.0 µM
YSK4 (human) = YSK4 (human) (UniProt Q56UN5); conditions: compound 1.0 µM

Sequence of CDC42BPG (human) (Q6DT37 whole entry, looked up): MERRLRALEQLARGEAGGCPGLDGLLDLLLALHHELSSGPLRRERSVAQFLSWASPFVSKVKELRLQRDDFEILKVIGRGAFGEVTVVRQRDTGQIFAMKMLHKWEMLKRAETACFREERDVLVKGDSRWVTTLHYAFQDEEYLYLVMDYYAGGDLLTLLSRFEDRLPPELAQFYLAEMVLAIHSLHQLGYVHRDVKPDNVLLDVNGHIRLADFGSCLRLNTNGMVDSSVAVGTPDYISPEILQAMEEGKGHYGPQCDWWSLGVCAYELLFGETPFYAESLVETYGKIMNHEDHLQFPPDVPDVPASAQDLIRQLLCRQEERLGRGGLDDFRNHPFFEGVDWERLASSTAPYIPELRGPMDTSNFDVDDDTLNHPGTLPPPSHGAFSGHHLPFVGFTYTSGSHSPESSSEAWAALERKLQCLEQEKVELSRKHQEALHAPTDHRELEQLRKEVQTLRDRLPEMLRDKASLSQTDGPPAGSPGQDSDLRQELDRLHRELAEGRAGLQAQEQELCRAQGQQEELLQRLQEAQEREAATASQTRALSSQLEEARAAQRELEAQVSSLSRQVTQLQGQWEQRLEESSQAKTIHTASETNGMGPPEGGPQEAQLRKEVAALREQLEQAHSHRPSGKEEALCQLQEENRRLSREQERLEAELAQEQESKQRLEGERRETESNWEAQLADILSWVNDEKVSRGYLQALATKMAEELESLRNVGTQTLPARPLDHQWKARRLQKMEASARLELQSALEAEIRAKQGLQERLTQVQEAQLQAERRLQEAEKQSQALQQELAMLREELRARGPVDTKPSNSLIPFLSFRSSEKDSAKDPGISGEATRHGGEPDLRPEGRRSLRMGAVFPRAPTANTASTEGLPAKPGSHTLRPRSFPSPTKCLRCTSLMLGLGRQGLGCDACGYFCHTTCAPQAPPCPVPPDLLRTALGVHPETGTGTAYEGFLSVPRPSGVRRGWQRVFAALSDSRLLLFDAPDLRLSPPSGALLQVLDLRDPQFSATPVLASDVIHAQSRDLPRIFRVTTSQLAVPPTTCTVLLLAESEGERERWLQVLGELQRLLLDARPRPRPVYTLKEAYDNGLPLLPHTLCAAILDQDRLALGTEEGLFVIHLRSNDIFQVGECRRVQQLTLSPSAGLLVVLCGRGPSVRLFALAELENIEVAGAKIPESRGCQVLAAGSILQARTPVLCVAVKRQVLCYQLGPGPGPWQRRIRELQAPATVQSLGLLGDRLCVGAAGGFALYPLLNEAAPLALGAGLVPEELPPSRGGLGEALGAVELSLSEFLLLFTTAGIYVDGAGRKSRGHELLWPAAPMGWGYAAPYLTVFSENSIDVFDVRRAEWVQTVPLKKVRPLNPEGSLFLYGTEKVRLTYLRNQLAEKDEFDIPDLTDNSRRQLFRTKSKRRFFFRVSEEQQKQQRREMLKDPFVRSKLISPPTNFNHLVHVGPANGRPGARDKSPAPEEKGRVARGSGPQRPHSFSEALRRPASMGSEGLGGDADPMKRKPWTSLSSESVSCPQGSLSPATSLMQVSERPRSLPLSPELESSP

With CN(C)C/C=C/C(=O)Nc1cccc(C(=O)Nc2ccc(Nc3nccc(-c4c(-c5ccccc5)nn5ccccc45)n3)cc2)c1 the kinase still bound, per cent of control [1] was 12%, the Kd (CDC42BPG (human)) was 18 nM and the kinase still bound, per cent of control (CDC42BPG (human)) was 0.25%. For the same compound, the kinase still bound, per cent of control (CDKL2 (human)) was 74%, the Kd (CIT (human)) was 95 nM and the kinase still bound, per cent of control (CIT (human)) was 0.3%. For the same compound, the kinase still bound, per cent of control (CSNK1D (human)) was 3.1%, the kinase still bound, per cent of control (CaMK1 (human)) was 100% and the kinase still bound, per cent of control (DDR2 (human)) was 9%. It also gave a kinase still bound, per cent of control [2] of 1.8%, a kinase still bound, per cent of control (EIF2AK1 (human)) of 76% and a kinase still bound, per cent of control (EIF2AK2 (human)) of 92%. For the same compound, the kinase still bound, per cent of control (ERBB4 (human)) was 5.4%, the kinase still bound, per cent of control (FGR (human)) was 10% and the kinase still bound, per cent of control (FLT3 (human)) was 1%. It also gave a kinase still bound, per cent of control [3] of 11%, a kinase still bound, per cent of control (GRK7 (human)) of 86% and a kinase still bound, per cent of control (IGF1R (human)) of 100%. It also gave a kinase still bound, per cent of control [4] of 89%, a kinase still bound, per cent of control (KIT (human)) of 0.15% and a kinase still bound, per cent of control [5] of 4%. The kinase still bound, per cent of control [6] was 49%, the kinase still bound, per cent of control (MAP3K11 (human)) was 71% and the kinase still bound, per cent of control (MAPK6 (human)) was 71%. It also gave a kinase still bound, per cent of control (MAPK7 (human)) of 100%, a kinase still bound, per cent of control (MAPKAPK5 (human)) of 100% and a kinase still bound, per cent of control (MAST1 (human)) of 99%. The kinase still bound, per cent of control (MATK (human)) was 100%, the kinase still bound, per cent of control [7] was 59% and the kinase still bound, per cent of control (NTRK1 (human)) was 30%. The kinase still bound, per cent of control (PDPK1 (human)) was 100%, the kinase still bound, per cent of control (PHKG1 (human)) was 100% and the kinase still bound, per cent of control (PIK3C2G (human)) was 100%. The kinase still bound, per cent of control [8] was 93%, the kinase still bound, per cent of control (PKN2 (human)) was 100% and the Kd (PRKD3 (human)) was 240 nM. It also gave a kinase still bound, per cent of control (PRKD3 (human)) of 0%, a kinase still bound, per cent of control (SIK3 (human)) of 100% and a kinase still bound, per cent of control (SRMS (human)) of 87%. It also gave a kinase still bound, per cent of control (STK17A (human)) of 93%, a kinase still bound, per cent of control (STK25 (human)) of 100% and a kinase still bound, per cent of control (STK39 (human)) of 82%. For the same compound, the kinase still bound, per cent of control (TRPM6 (human)) was 100%, the kinase still bound, per cent of control (WEE1 (human)) was 100% and the kinase still bound, per cent of control (YSK4 (human)) was 62%.

For CN(C)C/C=C/C(=O)Nc1cccc(C(=O)Nc2ccc(Nc3nccc(/C(C#N)=C4\Nc5ccccc5S4)n3)cc2)c1, the kinase still bound, per cent of control [1] was 100%, the kinase still bound, per cent of control (CDC42BPG (human)) was 88% and the kinase still bound, per cent of control (CDKL2 (human)) was 28%. The kinase still bound, per cent of control (CIT (human)) was 65%, the kinase still bound, per cent of control (CSNK1D (human)) was 26% and the kinase still bound, per cent of control (CaMK1 (human)) was 100%. The kinase still bound, per cent of control (DDR2 (human)) was 100%, the kinase still bound, per cent of control [2] was 100% and the kinase still bound, per cent of control (EIF2AK1 (human)) was 100%. For the same compound, the kinase still bound, per cent of control (EIF2AK2 (human)) was 100%, the kinase still bound, per cent of control (ERBB4 (human)) was 100% and the kinase still bound, per cent of control (FGR (human)) was 100%. It also gave a kinase still bound, per cent of control (FLT3 (human)) of 23%, a kinase still bound, per cent of control [3] of 57% and a kinase still bound, per cent of control (GRK7 (human)) of 81%. For the same compound, the kinase still bound, per cent of control (IGF1R (human)) was 100%, the kinase still bound, per cent of control [4] was 100% and the kinase still bound, per cent of control (KIT (human)) was 12%. It also gave a Kd [5] of 160 nM, a kinase still bound, per cent of control [5] of 6.6% and a kinase still bound, per cent of control [6] of 100%. The kinase still bound, per cent of control (MAP3K11 (human)) was 100%, the kinase still bound, per cent of control (MAPK6 (human)) was 27% and the kinase still bound, per cent of control (MAPK7 (human)) was 100%. It also gave a kinase still bound, per cent of control (MAPKAPK5 (human)) of 100%, a kinase still bound, per cent of control (MAST1 (human)) of 100% and a kinase still bound, per cent of control (MATK (human)) of 100%. For the same compound, the kinase still bound, per cent of control [7] was 100%, the kinase still bound, per cent of control (NTRK1 (human)) was 100% and the kinase still bound, per cent of control (PDPK1 (human)) was 100%. The kinase still bound, per cent of control (PHKG1 (human)) was 94%, the kinase still bound, per cent of control (PIK3C2G (human)) was 100% and the kinase still bound, per cent of control [8] was 100%. It also gave a kinase still bound, per cent of control (PKN2 (human)) of 87%, a kinase still bound, per cent of control (PRKD3 (human)) of 100% and a kinase still bound, per cent of control (SIK3 (human)) of 100%. It also gave a kinase still bound, per cent of control (SRMS (human)) of 100%, a kinase still bound, per cent of control (STK17A (human)) of 100% and a kinase still bound, per cent of control (STK25 (human)) of 100%. The kinase still bound, per cent of control (STK39 (human)) was 100%, the kinase still bound, per cent of control (TRPM6 (human)) was 100% and the kinase still bound, per cent of control (WEE1 (human)) was 100%. For the same compound, the kinase still bound, per cent of control (YSK4 (human)) was 59%.
